Laboratory results as given in US20260274814A1, “THIENYL COMPOUNDS FOR THE TREATMENT OF A CENTRAL NERVOUS SYSTEM DISEASE OR DISORDER” (Coreterra Therapeutics, Inc., priority 2023, published 2026).
Structures can show the parent of a compound that is named as a salt. Where two headings read alike, the source gives them in different places.

Test system: mice
Experiment: Neuropharmacological Assay (SmartCube): automated behavioral signature of compound-treated mice compared with a database of reference drug classes
Type: in vivo
Conditions: for MED (minimal effective dose) / minimal effective dose / MED: i.p., that dose is shown; for minimal effective dose: Mus musculus, ip
Outline: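 Probabilities of matching each neuropharmacological class (e.g. anxiolytic, antidepressant) come from algorithmic analysis of digitally recorded behaviour, reported for 3.0 mg/kg. Compounds were given intraperitoneally in a Pharmasolve/PEG/propylene glycol vehicle 15 min pre-test. Minimal effective dose is the lowest dose reaching 45% or more total activity.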

[1] = dose having 45% or more total activity in SmartCube, if only one dose was tested, hydrochloride
[2] = probability that activity matches this class of agents, 3.0 mg/kg i.p., 15 min before test
[3] = probability that activity matches this class of agents, 3.0 mg/kg i.p., 15 min before test, hydrochloride, 3 mg/kg
[4] = minimal effective dose: dose having 45% or more total activity in SmartCube, if only one dose tested, read-out: MED
[5] = SmartCube class probability, 3.0 mg/kg i.p., 15 min before test
[6] = SmartCube class probability, 3.0 mg/kg i.p., 15 min before test, hydrochloride, 3 mg/kg
[7] = minimal effective dose: dose having 45% or more total activity in SmartCube, if only one dose tested
[8] = SmartCube probability class, 3.0 mg/kg dose, i.p. 15 min before the behavioral test
[9] = SmartCube probability class, 3.0 mg/kg dose, i.p. 15 min before the behavioral test, hydrochloride, 3 mg/kg
[10] = SmartCube class probability, 3.0 mg/kg i.p., 15 min before test, 3 mg/kg

Row | SMILES | MED (minimal effective dose) [1] [mpk] | AG [2] | AN [2] | HL [2] | MS [2] | SH [2] | UK [2] | AD [3] | AX [3] | minimal effective dose [4] [mg/kg] | AG [5] | AN [5] | AP [5] | AX [5] | CE [5] | MS [5] | AD [5] | HL [5] | PS [5] | SH [5] | also measured
1 | CC1(N)CCc2ccsc2C1 (single isomer, unassigned) [Compound 112, 6-methyl-5,7-dihydro-4H-benzothiophen-6-amine hydrochloride] | >3 | ND (^ <4%) | ND (^ <4%) | ND (^ <4%) | ND (^ <4%) | ND (^ <4%) | ND (^ <4%) | + (≥4%) | + (≥4%) | – | – | – | – | – | – | – | – | – | – | – | AP [2]: ND (^ <4%); CE [2]: ND (^ <4%); PS [3]: ND (^ <4%)
2 | Cc1csc2c1CC(N)CC2 (single isomer, unassigned) [Compound 143, 3-methyl-4,5,6,7-tetrahydrobenzothiophen-5-amine hydrochloride] | – | – | – | – | – | – | – | – | – | 1 | ND (^ <4%) | ND (^ <4%) | ND (^ <4%) | ND (^ <4%) | ND (^ <4%) | ND (^ <4%) | – | – | – | – | AD [6]: + (≥4%); HL [6]: + (≥4%); PS [6]: ++ (≥24%); SH [6]: + (≥4%); UK [6]: ND (^ <4%)
3 | CNC1COc2csc(C(F)(F)F)c2C1 (single isomer, unassigned) [Compound 259, N-methyl-5-(trifluoromethyl)-3,4-dihydro-2H-thieno[3,4-b]pyran-3-amine hydrochloride] | – | – | – | – | – | – | – | – | – | – | ND (^ <4%) | ND (^ <4%) | ND (^ <4%) | ND (^ <4%) | ND (^ <4%) | ND (^ <4%) | ND (^ <4%) | ND (^ <4%) | ND (^ <4%) | ND (^ <4%) | UK [6]: ++ (≥24%); MED [7]: >3 mpk
4 | Cc1csc2c1OCC(N)C2 (single isomer, unassigned) [Compound 296, 3-methyl-6,7-dihydro-5H-thieno[3,2-b]pyran-6-amine hydrochloride] | – | – | – | – | – | – | – | – | – | – | – | – | – | – | – | – | – | – | – | – | AD [8]: ND (^ <4%); AG [8]: ND (^ <4%); AN [8]: ND (^ <4%); AX [8]: ND (^ <4%); CE [8]: ND (^ <4%); HL [8]: ND (^ <4%); MS [8]: ND (^ <4%); PS [8]: ND (^ <4%); SH [8]: ND (^ <4%); AP [9]: ND (^ <4%); UK [9]: + (≥4%); MED (minimal effective dose: dose having 45% or more total activity in SmartCube, if only one dose was tested, hydrochloride): >3 mpk
5 | CCc1csc2c1CC(NC)CC2 (stereo not drawn) [Compound 207, 3-ethyl-N-methyl-4,5,6,7-tetrahydrobenzothiophen-5-amine hydrochloride] | – | – | – | – | – | – | – | – | – | > 3 | ND (^ <4%) | ND (^ <4%) | ND (^ <4%) | ND (^ <4%) | ND (^ <4%) | ND (^ <4%) | ND (^ <4%) | ND (^ <4%) | ND (^ <4%) | ND (^ <4%) | UK [5]: + (≥4%)
6 | NC1COc2c(C(F)(F)F)csc2C1 (stereo not drawn) [Compound 221, 3-(trifluoromethyl)-6,7-dihydro-5H-thieno[3,2-b]pyran-6-amine hydrochloride] | – | – | – | – | – | – | – | – | – | 3 | ND (^ <4%) | + (≥4%) | ND (^ <4%) | ++ (≥24%) | ND (^ <4%) | ND (^ <4%) | ND (^ <4%) | + (≥4%) | ND (^ <4%) | ND (^ <4%) | UK [5]: ++ (≥24%)
7 | CNC1(C)CCc2ccsc2C1 (single isomer, unassigned) [Compound 49, N, 6-dimethyl-5,7-dihydro-4H-benzothiophen-6-amine hydrochloride] | 1.0 | ND (^ <4%) | ND (^ <4%) | ND (^ <4%) | – | ND (^ <4%) | ND (^ <4%) | ++ (≥24%) | ++ (≥24%) | – | – | – | – | – | – | – | – | – | – | – | AP [2]: ND (^ <4%); PS [2]: ND (^ <4%); CE [3]: + (≥4%); MS [3]: + (≥4%)
8 | CNC1(C)CCc2csc(C(F)(F)F)c2C1 (stereo not drawn) [Compound 141, N, 5-dimethyl-3-(trifluoromethyl)-6,7-dihydro-4H-2-benzothiophen-5-amine hydrochloride] | – | – | – | – | – | – | – | – | – | 3 | ND (^ <4%) | ND (^ <4%) | ND (^ <4%) | +++ (≥49%) | ND (^ <4%) | ND (^ <4%) | + (≥4%) | ND (^ <4%) | ND (^ <4%) | ND (^ <4%) | UK [5]: ND (^ <4%)
9 | CC1(N)CCc2ccsc2C1 (single isomer, unassigned) [Compound 111, 6-methyl-5,7-dihydro-4H-benzothiophen-6-amine hydrochloride] | – | ND (^ <4%) | ND (^ <4%) | ND (^ <4%) | ND (^ <4%) | ND (^ <4%) | ND (^ <4%) | ++ (≥24%) | ++ (≥24%) | – | – | – | – | – | – | – | – | – | – | – | minimal effective dose (dose having 45% or more total activity in SmartCube, if only one dose was tested, read-out: MED (minimal effective dose)): 3 mg/kg; AP [2]: ND (^ <4%); CE [2]: ND (^ <4%); PS [3]: + (≥4%)
10 | CNC1CCc2cc(F)sc2C1 (single isomer, unassigned) [Compound 81, 2-fluoro-N-methyl-4,5,6,7-tetrahydrobenzothiophen-6-amine hydrochloride] | 1 | ND (^ <4%) | ND (^ <4%) | ND (^ <4%) | ND (^ <4%) | ND (^ <4%) | ND (^ <4%) | ND (^ <4%) | ND (^ <4%) | – | – | – | – | – | – | – | – | – | – | – | CE [2]: ND (^ <4%); PS [2]: ND (^ <4%); AP [3]: ++++ (≥74%)
11 | CNC1CCc2c(F)csc2C1 (single isomer, unassigned) [Compound 84, 3-fluoro-N-methyl-4,5,6,7-tetrahydrobenzothiophen-6-amine hydrochloride] | 0.1 | ND (^ <4%) | ND (^ <4%) | ND (^ <4%) | ND (^ <4%) | – | ND (^ <4%) | + (≥4%) | ND (^ <4%) | – | – | – | – | – | – | – | – | – | – | – | PS [2]: ND (^ <4%); AP [3]: ND (^ <4%); CE [3]: ND (^ <4%); SH [3]: +++ (≥49%)
12 | CNC1(C)COc2c(C)csc2C1.Cl (stereo not drawn) [Compound 240, N, 3,6-trimethyl-6,7-dihydro-5H-thieno[3,2-b]pyran-6-amine hydroachloride] | – | – | – | – | – | – | – | – | – | – | ND (^ <4%) | ND (^ <4%) | ND (^ <4%) | ND (^ <4%) | ND (^ <4%) | ND (^ <4%) | – | ND (^ <4%) | ND (^ <4%) | ND (^ <4%) | AD [10]: + (≥4%); UK [10]: +++ (≥49%); MED [7]: 3 mpk
